Data published in patent US12054447B2, “PCNA inhibitors” (City of Hope, priority 2015, dated 2024).
pIC50: −log10 of the molar value.

Legend:
Stability in plasma = assay type: in vitro ADME
From the text: FIGS. 8A-8B. FIG. 8A depicts an illustration of AOH1160 degradation by amide cleavage in mouse plasma. FIG. 8B depicts the stability of AOH1160 in human and animal plasma. […] AOH1160 is stable in the plasma of canine, monkey, and human, as well as in the plasma of ES-1-deficient mice (Es1e/SCID).
AOH1160 was degraded in the plasma collected from a wildtype Balb/c mouse, see FIGS. 8A-8B. […] AOH1160 is stable in the plasma of canine, monkey, and human, as well as in the plasma of ES-1-deficient mice (Es1e/SCID).

7SM0032 [1] = assay: TUNEL assay (apoptosis); assay type: cell-based, human; conditions: 7SM0032 cells, 500 nM, 24 h
Procedure: (§1) To measure the effect of the compounds on cell growth, cells were seeded at 3×10^4/ml into a 96-well plate. Once attached, cells were treated with various concentrations of AOH1160 for 72 h. Cell growth was measured by the CellTitor-Glo assay (Promega, Madison, WI) according to the manufacturer's instructions. To measure apoptosis, cells were seeded at 1×10^5/ml onto a chamber slide. Once attached, cells were treated with the 500 nM AOH1160 for 24 h. Cells were fixed and analyzed by a TUNEL assay using the TMR red in situ cell death detection kit (Roche Diagnostics, Indianapolis, IN).

SK-N-DZ = assay: Cell cycle analysis (PI, flow cytometry); assay type: cell-based, human; conditions: NB cells (SK-N-DZ), 500 nM
Procedure: Cells were seeded at 1×10^5/ml in a 6-well plate. Once attached overnight, cells were treated with or without AOH1160 for 6 or 24 h. After being fixed in 60% ethanol and stained with propidium iodide (PI), cells were analyzed by flow cytometry to determine the cellular PI fluorescence intensity. The flow cytometry data were analyzed by the FlowJo program to model various cell populations.

A549 = assay: AOH1160 IC50 in additional cancer cell lines (Table 4); assay type: cell-based; conditions: Homo sapiens; A549, Non-Small Cell Lung
From the text: (§2) In addition numerous analogs related to AOH1160 were screened in numerous neuroblastoma cell lines for anti-cancer activity (Table 2). AOH1160 was screened for anti-cancer activity in additional cancer cell lines besides neuroblastoma (Table 3).

NCI-H322M = assay: as above; assay type: cell-based; conditions: Homo sapiens, Non-Small Cell Lung
From the text: as §2

HCT-116 = assay: as above; assay type: cell-based; conditions: Homo sapiens; HCT-116, Colon
From the text: as §2

OVCAR-8 = assay: as above; assay type: cell-based; conditions: Homo sapiens; OVCAR-8, Ovarian
From the text: as §2

HCT-15 = assay: as above; assay type: cell-based; conditions: Homo sapiens; HCT-15, Colon
From the text: as §2

HL-60 = assay: as above; assay type: cell-based; conditions: Homo sapiens; HL-60, Leukemia
From the text: as §2

DU-145 = assay: as above; assay type: cell-based; conditions: Homo sapiens; DU-145, Prostate
From the text: as §2

NCI-H23 = assay: as above; assay type: cell-based; conditions: Homo sapiens; NCI-H23, Non-Small Cell Lung
From the text: as §2

NCI-60 panel = NCI-60 panel test, median over the panel; assay type: cell-based; conditions: 60 cancer cell lines, 5-dose study
Procedure: FIG. 7. NCI-60 panel test. The effect of AOH1160 on growth of the NCI-60 panel, which consists of 60 cancer cell lines representing 9 major cancer types, was tested in a 5-dose study. Shown are the Log IC50 values determined for each cell line. […] This study was performed by the National Institute of Cancer.
As observed in FIG. 7, the effect of AOH1160 on growth of the NCI-60 panel, which consists of 60 cancer cell lines representing 9 major cancer types, was tested in a 5-dose study. Shown are the Log IC50 values determined for each cell line.

7SM0032 [2] = assay: Cell growth, CellTitor-Glo assay, 72 h; assay type: cell-based, human; conditions: Homo sapiens; 7SM0032 (non-malignant)
Procedure: The human NB cell lines, SK-N-DZ, SK-N-BE(2)c, SK-N-AS, and LAN-5 obtained from the American Type Culture Collection (Rockville, MD), were cultured in DMEM with 10% fetal bovine serum (FBS), 100 units/ml penicillin, and 100 μg/ml streptomycin in the presence of 5% CO2 at 37° C. Human PBMCs from a healthy donor were purchased from Sanguine BioSciences (Valencia, CA) and grown in RPMI1640 with 10% FBS, 100 units/ml penicillin, 100 μg/ml streptomycin, and 10 ng/ml IL-2 in the presence of 5% CO2 at 37° C. Human embryonic progenitor cell line 7SM0032 was acquired from Millipore (Billerica, MA) and grown in the hEPM-1 Media Kit purchased from the same company. The plasmid pCBASce expresses the rare cutting I-SceI meganuclease. The U20S-derived cell lines, DR-GFP and EJ5-GFP, each contain a stably transfected reporter gene for DSB repair mediated by HR and end joining (EJ), respectively. These cell lines were cultured in DMEM medium with 10% FBS at 37° C. in the presence of 5% CO2.
as §1

[3] = system: replication fork extension; assay: DNA fiber assay; assay type: cell-based; conditions: CldU / IdU labeling before and after treatment
Procedure: FIGS. 3A-3B. […] Synchronized cells were sequentially incubated in the presence of CldU and IdU before and after AOH1160 treatment, respectively. Cells sequentially incubated with the same two nucleotide analogues but without AOH1160 were used as control. Images of FIG. 3A depict representative images of the labeled DNA strands from cells treated with or without AOH1160. FIG. 3B depicts the lengths of CldU (light gray) and IdU (dark gray) incorporated DNA segments measured from more than 30 independent DNA strands in cells treated with or without AOH1160 were averaged and graphed with standard deviations.

## O=C(CNC(=O)c1cccc2ccccc12)Nc1ccccc1Oc1ccccc1 [AOH1160]
Stability in plasma; canine plasma
  stability in plasma: stable
Stability in plasma; human plasma
  stability in plasma: stable
Stability in plasma; monkey plasma
  stability in plasma: stable
Stability in plasma; plasma of ES-1-deficient mice (Es1e/SCID)
  stability in plasma: stable
Stability in plasma; wildtype Balb/c mouse plasma
  stability in plasma: quickly degraded
7SM0032 [1]
  apoptosis: Nor does it increase intracellular γH2A.X level (FIG. 2B) or cause apoptosis
SK-N-DZ
  cell cycle effect: causes cell cycle arrest
A549
  pIC50: 6.76
NCI-H322M
  pIC50: 6.80
HCT-116
  pIC50: 6.99
OVCAR-8
  pIC50: 6.69
HCT-15
  pIC50: 6.88
HL-60
  pIC50: 6.89
DU-145
  pIC50: 6.70
NCI-H23
  pIC50: 6.71
NCI-60 panel
  pIC50: ~6.49
7SM0032 [2]
  pIC50: < 4.70
[3]
  replication fork extension: inhibition of replication fork extension
